Experimental data from patent publication US8962263B2, “Methods and compositions for detecting the activation state of multiple proteins in single cells” (The Board of Trustees of the Leland Stanford Junior …, priority 2001, dated 2015).

Assays:
[1] = test system: PDK-1; assay: PDK-1 immunoprecipitation kinase assay from ICAM-2 cells; assay type: biochemical; conditions: compounds 10 μM, 1 hr
Excerpt: A) ICAM-2, interacts with α-actinin and ezrin. ICAM-2, ICAM2-ΔC or control cells were immunoprecipiated for ICAM-2, and immunoblotted for either a-actinin or ezrin. Control lysates were not subjected to immunoprecipitation and reflect positive controls for detected interacting protein. […] ICAM-2, and control cells were serum starved (48, hrs), treated with LY294002, (10, μM, 24, hrs), or cultured in growth media, and prepared for intracellular detection of phosphatidyinositol 3,4,5, triphosphate detection by flow cytometry. […] Phosphotransfer of ATP to peptide substrate was detected by scintillation counting and presented as counts per minute CPM. […]
PDK-1 activity was determined by a PDK-1 immunoprecipiation kinase assay kit (Upstate Biotecnology, Lake Placid, N.Y.) as recommended by manufacturer. In brief, PDK-1 was immunoprecipitated from 1×10^6 treated cells, incubated with inactivated SGK enzyme, and detection of (γ-^32P) ATP incorporation to a SGK peptide substrate was measured by scintillation counting. PI3K activity was detected by developed PI3K FACS based assay (see below). AKT activity was detected by immunoprecipitation of AKT1 from cells and used in a kinase assay with GSK3 fusion protein (CST). […] Kinase reaction was terminated with SDS sample buffer boiled for 5 min, and phosphorylation state of GS3K was detected by immunoblotting and visualized using ECL detection (Amersham). […]

[2] = test system: ezrin; assay: phosphotyrosine-protein based elisa for ezrin tyrosine phosphorylation upon ICAM-2 ligation; assay type: cell-based, human; conditions: Jurkat cells
Protocol: A) Expression levels of ICAM-2, vary across cell lines of different origins. Quantitative flow cytometry analysis was performed to assess the number of ICAM-2 surface molecules across transformed and untransformed fibroblasts, lymphocytes of T-cell and different B-cell differentiation states and myeloid lineages (see Material and Methods for elaboration). The number of surface molecules/cell is expressed as the mean (bar)+/−SD of triplicate experiments. B) Crosslinking of endogenous ICAM-2, induces ezrin tyrosine phosphorylation and enhanced ICAM-2, interaction. Jurkat cells were crosslinked for ICAM-2 using monoclonal antibody for the indicated times and subjected to immunoprecipitation/immunoblotting as indicated. C) Inhibition of ezrin phosphotyrosine by chemical inhibitors of src and Rho-dependent kinases. D) Ezrin phosphorylation and enhanced interaction with the p85, subunit of PI3K as a function of ICAM-2. Determined as described above. E) PDK-1, activity as a function of ICAM-2, ligation, as described above). F) PI3K and AKT localize to the membrane as a function of ICAM-2, ligation. Membrane/cytosolic fractionation was performed on ICAM-2, ligated Jurkat cells as a function of time and subjected to immunoblotting for PI3K and AKT.
In order to identify upstream kineses capable of tyrosine phosphorylating ezrin as a function of ICAM-2 ligation, we developed a phosphotyrosine-protein based elisa to screen for the inhibition of ezrin tyrosine phosphorylation in vivo by various known inhibitors of protein kineses (Perez and Nolan, manuscript in preparation). […] Given the design of the screen to detect tyrosine residue phosphorylation, we speculate that activation of Rho-dependent processes may be a prerequisite for ezrin to be tyrosine phosphorylated by src (elaborated below).

[3] = test system: Jurkat T cells; assay: anti-Fas induced apoptosis in ICAM-2 crosslinked Jurkat cells, annexin-V binding assay; assay type: cell-based, human; conditions: inhibitor 10 μM 1 hour, anti-Fas 50 ng/ml 8 hours
Protocol: A) ICAM-2, crosslinking induced AKT activity in Jurkat T cells and subsequent phosphorylation of GSK3, FKHR, and AFX as a function of time. Serum starved Jurkat T cells were incubated with either isotype control or anti-human ICAM-2, (10, μg/ml) for the indicated times. AKT kinase activity was determined as described. Immunoblot analysis verified AKT dual phosphorylation, FKHR and GSK3 phosphorylation, and BAD phosphorylation as a function of ICAM-2, crosslinking. B) ICAM-2 crosslinking induces AKT activity in BaF3, pre-B cells. […] ICAM-2, was crosslinked on 106, Jurkat T cells using an ICAM-2, mAb (10, μg/ml) 30, minutes prior to treatment with staurosporine (+) or DMSO vehicle (−). Apoptosis was determined by flow cytometry using annexin-V binding assay. […] Cells were assessed for apoptosis by annexin-V binding assay. […]
Apoptosis was determined either by counting pyknotic nuclei, annexin-V binding by flow cytometry, or TUNEL BrdU staining by flow cytometry as indicated. Apoptosis was induced either by staurosporine (1 μm), treatment with anti-mouse Fas (5 μq/ml Santa Cruz Biotechnology (SCB), anti-human Fas ([…]) as indicated in appropriate experiment, IL-3 withdrawal-(24 hrs) or as indicated. For pyknolic nuclei count, NIH3T3 cells were grown on glass coverslips and assayed for apoptosis. Suspension cells were analyzed by nuclear staining with 25 μM acridine orange/25 μm ethidium bromide or 5 μg/ml Hoechst 33342 (Molecular Probes, Eugene, Oreg.). Apoptosis was identified by the presence of characteristic pyknotic nuclei as described (Jacobson and Raff, 1995). At least 5 individual fields were photographed and counted using a Zeiss axioscope fluorescence microscope. […] The cells were trypsinized and viable cells counted following trypan blue staining. Untreated cells were counted at the time of treatment. % survival represents (number of viable cells post-treatment)/(number of viable cells pretreatment). […] Flow cytometry analysis was performed on a BD FACSCalibur machine with CELLQuest and analyzed using FlowJo software (Tree Star).

[4] = test system: CD19+ human B cells; conditions: 10 μM, 30 minutes
Protocol: Apoptosis was measured by annexin-V binding detected by flow cytometry, and gated for CD19+, cells. […] Apoptosis was measured by annexin-V binding assay.
Antibody cross-linking experiments were performed using mAbs to anti-ICAM-1, anti-ICAM-2, anti-ICAM-3, anti-CD43, or anti-CD44 that recognizes the N-terminal region (extracellular domain) at 10 μg/ml. Spin dialysis (Biorad) was used for buffer exchange of azide containing antibodies (0.01%) to phosphate buffered saline buffer pH 7.4. Anti-mouse IgG (Sigma) was used as a control antibody in cross-linking experiments. 1×10^6 Jurkat, 1×10^6 BaF3, or 1×10^7 PBMC cells were serum starved for 4 hours respectively (except PBMC). Cells were incubated with either mAb (10 μg/ml) or mouse IgG (10 μg/ml) at 37° C. for the indicated time. Time points began post serum starvation to attenuate most of the signaling pathways or as indicated. […] Cells extracts were taken and subjected to either immunoprecipitation or immunoblotting were appropriate. Primary cells were subjected to apoptotic treatment followed by preparation for flow cytometry. GTPγS was made cell permeant by pre-incubating compound with Fugene (Roche Biochemicals) in a 1:4 molar ratio for 30 minutes at 25° C. prior to being applied to cells.

SMILES: C[C@@H](N)[C@H]1CC[C@H](C(=O)Nc2ccncc2)CC1 [Y-27632]
- PDK-1 activity in ICAM-2 cells [1]: partially inhibited
- tyrosine phosphorylation of ezrin [2]: inhibit the tyrosine phosphorylation of ezrin
- tyrosine phosphorylation of ezrin ([2]; listed as Y-27362): abolished tyrosine phosphorylation of ezrin
- ICAM-2 crosslinking protection against Fas induced apoptosis [3]: abrogated
- ICAM-2 anti-apoptotic effect in CD19+ human B cells [4]: abrogated
